Laboratory results reported in article PMC9873282, “Design, synthesis and evaluation of quinoline-O-carbamate derivatives as multifunctional agents for the treatment of Alzheimer’s disease” (Journal of Enzyme Inhibition and Medicinal Chemistry, 2023).

Key:
eeAChE = biological target: T1, eeAChE (Electrophorus electricus, UniProt O42275); assay: biochemical; parameters: species or system electric eel
T1 construct: eeAChE, from the electric eel; purchased Sigma Aldrich; host or cells: electric eel (natural source)
Protocol: (§1) The inhibitory activities of the synthesised compounds against eeAChE (from electric eel) and eqBuChE (from equine serum) were tested by the modified Ellman’s method[26]^,[27]. […] The determination of AChE and BuChE inhibitory potency of the synthesised compounds were evaluated by Ellman assay, the detailed procedure referred to our previous work[26]^,[27].

eqBuChE = biological target: T2, eqBuChE (Equus caballus, UniProt P81908); assay: biochemical; parameters: species or system equine
T2 construct: eqBuChE, from equine serum; purchased Sigma Aldrich; host or cells: equine serum (natural source)
Protocol: as §1

hAChE = biological target: T3, hAChE (Homo sapiens, UniProt P22303); assay: biochemical
T3 construct: hAChE, from human erythrocytes AChE; purchased Sigma Aldrich; host or cells: human erythrocytes (natural source)
Protocol: (§2) Acetylcholinesterase (eeAChE, from the electric eel; hAChE, from human erythrocytes AChE), butyrylcholinesterase (eqBuChE, from equine serum; hBuChE, human serum BuChE), 5,5′-dithiobis-2-nitrobenzoic acid (Ellman’s reagent, DTNB), acetylthiocholine chloride (ATC), and butyrylthiocholine chloride (BTC) were purchased form Sigma Aldrich. The determination of AChE and BuChE inhibitory potency of the synthesised compounds were evaluated by Ellman assay, the detailed procedure referred to our previous work[26]^,[27].

hBuChE = biological target: T4, hBuChE (Homo sapiens, UniProt P06276); assay: biochemical
T4 construct: hBuChE, human serum BuChE; purchased Sigma Aldrich; host or cells: human serum (natural source)
Protocol: as §2

BV-2 cells = assay: Cytotoxicity on BV-2 cells (CCK8 assay); assay type: cell-based; conditions: compounds at 2 µM
Protocol: (§3) Firstly, the cytotoxicity of compounds 3a, 3c, 3e, 3f, 3k, 3m and 3n were tested using CCK8 assay.
BV-2 cells were cultured in DMEM containing 10% foetal bovine serum, 100 U/mL penicillin, 100 U/mL streptomycin, and 1% nonessential amino acid at 37 °C with 5% CO2.
BV-2 cells in logarithmic growth stage were digested and centrifuged, and then resuspended in DMEM medium containing 1% penicillin-streptomycin and 10% foetal bovine serum. The cells was adjusted to 1.2 × 10^4 cells/well, and then seeded evenly in 96-well cell culture plates. The cells were incubated for 36 h at 37 °C with 5% CO2. After incubation, the cells were added to different concentrations (10 and 2 µM) of tested compounds, and incubated for 24 h at 37 °C with 5% CO2. Then, 10 µL CCK-8 solution was added to each well, and incubated for another 1 h at 37 °C with 5% CO2. The OD values were tested at […]. The cell viability (%) = {(ODdrug−ODblank)}/{(ODcontrol−ODblank)} × 100%.

IL-6 = IL-6 production in LPS-stimulated BV-2 cells (ELISA); assay type: cell-based; conditions: 1 µM and 2 µM; 1 µg/mL LPS 24 h
Protocol: as §3
(§4) BV-2 cells (2 × 10^5 cells/well) were seeded in a 24-well cell culture plates. The cells were divided into blank control group, model group (1 µg/mL LPS), LPS + 2 µM compound group, LPS + 1 µM compound group. Each drug group was pre-treated with corresponding concentration of drug solution for 8 h. After 8 h, the culture medium was aspirated out. Except for the blank control group, which was added with DMEM medium, the other groups were stimulated with 1 µg/mL LPS for 24 h. Then cell supernatant was aspirated and centrifuged at 3000 rpm for 3 min. The content of NO in cell culture supernatant was determined by Griess method, and the levels of cytokines IL-6 and IL-1β in cell culture supernatant were determined by IL-6 ELISA kit and IL-1β ELISA kit, respectively.

IL-1β = IL-1β production in LPS-stimulated BV-2 cells (ELISA); assay type: cell-based; conditions: 1 µg/mL LPS 24 h
Protocol: as §3, §4

NO = NO release in LPS-stimulated BV-2 cells (Griess method); assay type: cell-based; conditions: 1 µg/mL LPS 24 h
Protocol: as §3, §4

PC12 cells = assay: Cytotoxicity on PC12 cells; assay type: cell-based; conditions: at concentration below 40 µM
Protocol: (§5) The neuroprotective effect of compounds 3a, 3c, 3e, 3f, 3k, 3m, and 3n on Aβ25–35-induced PC12 cells injury were evaluated using CCK-8 assay. […] Furthermore, as shown in Figure 12(B), when PC12 cells were exposed to 25 µM Aβ25-35, the cell viability sharply declined to 57.3% (p < 0.01) compared with untreated group.
(§6) The PC12 cells during the logarithmic growth phase were digested and centrifuged with pancreatic enzyme solution, the cells were resuspended by adding the prepared media solution, and piped evenly with a pipette to seed in a 96-well cell culture plate (cell concentration adjusted to 2.0 × 10^4 cell·mL^−1). Each well was added 100 µL complete medium was added to each well and incubated at 37 °C and 5% CO2 for 24 h.

[1] = system: Aβ25-35-induced PC12 cells injury; assay: Neuroprotective effect on Aβ25-35-induced PC12 cells injury (CCK-8); assay type: cell-based; conditions: 25 µM Aβ25-35; model cell viability 57.3%
Protocol: as §5
• Preparation of Aβ25-35 aggregation. Aβ25-35 was purchased from sigma. 1 mg Aβ25-35 was dissolved in 943 µL of sterilised deionised water to obtain 1 mM stock solution, aliquoted, –20 °C preservation. Removing the appropriate volume in a 48-well plate and incubated in a 37 °C incubator for two days to allow its ageing to accumulate and produce neurotoxicity. After aggregation was completed, the solution was diluted with PBS to get 25 µM solution of Aβ25-35 aggregation. • Neuroprotective effects of compounds on Aβ25-35-induced PC12 cells injury
as §6
After incubation for 24 h, PC12 cells were divided into blank group, control group, Aβ25-35 model group and tested compounds group (5, 10, 20 µM). Then the original medium was discarded, and 100 µL new complete medium were added to PC12 cells, and the tested compounds group was added to 100 µL complete medium containing different concentrations (5, 10, and 20 µM) of tested compounds, incubated for 2 h at 37 °C, 5% CO2 conditions. After incubation for 2 h, 10 µL Aβ25-35 solution was added to the tested compounds groups and model group (the final concentration of Aβ25-35 was 25 µM), and incubated for 24 h at 37 °C, 5% CO2 conditions, 10 µL CCK-8 was added to each well and further incubated for 1 h at 37 °C and 5% CO2. Finally, the OD value was measured at 450 nm using a microplate reader, and each concentration set three wells. The cell survival rate (%) was determined according to the following formula: cell viability (%) = {(ODdrug−ODblank)}/{(ODcontrol−ODblank)}.

T2 sequence (P81908 whole entry): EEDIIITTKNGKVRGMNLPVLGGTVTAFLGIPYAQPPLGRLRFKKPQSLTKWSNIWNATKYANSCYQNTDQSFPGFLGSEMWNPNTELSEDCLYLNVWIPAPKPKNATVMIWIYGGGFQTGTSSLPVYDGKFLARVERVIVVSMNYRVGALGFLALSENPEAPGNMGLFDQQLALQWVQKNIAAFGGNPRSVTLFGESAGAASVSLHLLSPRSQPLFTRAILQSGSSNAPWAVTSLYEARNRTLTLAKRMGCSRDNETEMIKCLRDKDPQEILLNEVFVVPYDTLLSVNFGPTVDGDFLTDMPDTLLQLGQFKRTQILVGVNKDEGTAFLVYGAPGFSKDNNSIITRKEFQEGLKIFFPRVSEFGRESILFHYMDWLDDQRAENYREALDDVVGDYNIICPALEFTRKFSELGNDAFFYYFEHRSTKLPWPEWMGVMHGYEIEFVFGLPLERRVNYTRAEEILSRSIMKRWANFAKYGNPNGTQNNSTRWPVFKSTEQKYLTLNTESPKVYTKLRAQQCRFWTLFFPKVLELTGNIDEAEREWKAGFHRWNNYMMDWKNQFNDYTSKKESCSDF
T4 sequence (P06276 29-602): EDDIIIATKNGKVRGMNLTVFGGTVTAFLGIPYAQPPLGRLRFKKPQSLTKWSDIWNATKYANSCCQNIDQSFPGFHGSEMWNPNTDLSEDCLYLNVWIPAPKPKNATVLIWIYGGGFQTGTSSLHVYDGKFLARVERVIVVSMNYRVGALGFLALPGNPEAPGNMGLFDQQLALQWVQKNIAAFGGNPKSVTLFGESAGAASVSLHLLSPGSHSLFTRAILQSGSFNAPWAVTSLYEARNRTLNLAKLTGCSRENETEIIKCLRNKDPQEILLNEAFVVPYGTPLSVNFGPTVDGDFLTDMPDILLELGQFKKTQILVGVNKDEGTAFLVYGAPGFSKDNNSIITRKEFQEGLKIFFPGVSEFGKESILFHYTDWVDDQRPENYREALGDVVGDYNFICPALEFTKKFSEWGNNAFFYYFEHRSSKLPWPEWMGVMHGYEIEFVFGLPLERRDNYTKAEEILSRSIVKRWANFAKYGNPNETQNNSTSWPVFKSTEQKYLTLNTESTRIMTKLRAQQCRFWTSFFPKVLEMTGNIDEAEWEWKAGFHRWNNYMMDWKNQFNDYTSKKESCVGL
T1 sequence (O42275 24-633): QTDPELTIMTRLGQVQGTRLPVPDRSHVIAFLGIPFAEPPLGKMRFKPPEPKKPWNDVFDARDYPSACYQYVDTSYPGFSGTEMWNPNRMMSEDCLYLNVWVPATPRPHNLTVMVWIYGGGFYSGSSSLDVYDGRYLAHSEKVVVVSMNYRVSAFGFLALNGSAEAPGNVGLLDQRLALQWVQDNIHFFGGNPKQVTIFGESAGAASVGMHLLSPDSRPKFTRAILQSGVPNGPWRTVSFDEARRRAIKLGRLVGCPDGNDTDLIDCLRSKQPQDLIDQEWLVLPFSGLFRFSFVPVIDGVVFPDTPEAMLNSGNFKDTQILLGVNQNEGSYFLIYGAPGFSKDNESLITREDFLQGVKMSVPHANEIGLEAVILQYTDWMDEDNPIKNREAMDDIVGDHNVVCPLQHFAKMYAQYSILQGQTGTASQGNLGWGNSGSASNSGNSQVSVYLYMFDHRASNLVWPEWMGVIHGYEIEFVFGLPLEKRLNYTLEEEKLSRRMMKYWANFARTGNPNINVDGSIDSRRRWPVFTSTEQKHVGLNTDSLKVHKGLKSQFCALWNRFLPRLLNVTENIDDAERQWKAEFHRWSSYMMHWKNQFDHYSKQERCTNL
T3 sequence (P22303 32-617 isoform P22303-2 limits assumed): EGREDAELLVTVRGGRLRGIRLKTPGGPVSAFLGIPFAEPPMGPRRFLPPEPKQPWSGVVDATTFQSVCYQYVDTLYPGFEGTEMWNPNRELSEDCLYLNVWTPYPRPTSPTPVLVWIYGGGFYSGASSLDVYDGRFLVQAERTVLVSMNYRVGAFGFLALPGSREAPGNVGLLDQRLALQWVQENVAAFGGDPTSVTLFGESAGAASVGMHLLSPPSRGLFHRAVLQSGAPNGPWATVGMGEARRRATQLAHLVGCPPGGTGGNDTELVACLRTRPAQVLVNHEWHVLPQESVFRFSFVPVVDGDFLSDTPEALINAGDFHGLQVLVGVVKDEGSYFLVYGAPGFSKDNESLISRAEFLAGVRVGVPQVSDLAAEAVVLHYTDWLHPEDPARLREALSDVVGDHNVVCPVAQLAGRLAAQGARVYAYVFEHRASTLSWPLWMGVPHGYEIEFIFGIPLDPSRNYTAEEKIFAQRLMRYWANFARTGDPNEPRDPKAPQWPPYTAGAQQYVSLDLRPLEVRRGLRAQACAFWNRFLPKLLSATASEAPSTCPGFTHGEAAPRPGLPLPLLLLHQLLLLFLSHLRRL

In the case of `CN(C)C(=O)Oc1cccc2ncccc12` [Compound 3e, Quinolin-5-yl dimethylcarbamate], the IC50 (eeAChE) is reported as 4.5 ± 0.04 µM, the IC50 (eqBuChE; IC50 ± SD eqBuChE, BuChE from equine serum) is reported as 0.94 ± 0.07 µM and the “SI = IC50 (AChE)/IC50 (BuChE)” value (eqBuChE; eeAChE/eqBuChE) is reported as 4.8. For the same compound, the IC50 (hAChE) was 10.4 ± 0.21 µM, the IC50 (hBuChE; IC50 ± SD hBuChE, from human serum) was 3.7 ± 0.05 µM and the “SI = IC50 (AChE)/IC50 (BuChE)” value (hBuChE; hAChE/hBuChE) was 2.8. For the same compound, the “cell viability of BV-2 cells” value (BV-2 cells) was “did not show obvious change”, the “levels of IL-6 compared with model group” value (IL-6) was “significantly decreased” and the “levels of IL-1β compared with model group” value (IL-1β) was “significantly decreased”. For the same compound, the “release volume of NO” value (NO) was “significantly decreased”, the “cytotoxicity on PC12 cells” value (PC12 cells) was “did not show any cytotoxicity” and the “neuroprotective effect on Aβ25-35-induced PC12 cells injury” value [1] was “remarkable neuroprotective effects at 5 and 10 µM”.
